Data on eight molecules can be found in ChEMBL document CHEMBL1201862, “PubChem BioAssay data set” (2004).

What all share (test): inhibition of tumour cell growth, NCI panel, 48 h
For assay [1], the system named is A498.
The subject of assay [2] is CAKI-1.
The subject of assay [3] is CCRF-CEM.
Assay [4] relates to HL-60.
Assay [5] concerns HT-29.
In assay [6] the test system is IGROV-1.
Assay [7] has as its system MDA-MB-231.
The subject of assay [8] is MDA-MB-435.
In assay [9] the test system is NCI-H522.
Assay [10] deals with OVCAR-3.
In assay [11] the test system is PC-3.
For assay [12], the system named is RXF 393.
For assay [13], the system named is SF-295.
Assay [14] deals with SK-MEL-28.
For assay [15], the system named is SK-MEL-2.
For assay [16], the system named is SK-OV-3.
The subject of assay [17] is SNB-19.
Assay [18] concerns SR.
The subject of assay [19] is SW-620.
For assay [20], the system named is UO-31.

Each structure is given as a SMILES string.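 Test compounds were applied to cells in 96-well plates for 48 hours at 5 doses. GI50 is the concentration that inhibits growth by half.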 Active and inactive are the calls of the source. No stated cut-off is given here; in the data, active = GI50 up to about 1.1 µM and inactive = higher.

On to `COc1cc2ccc(/C=C\[N+](=O)[O-])cc2cc1OC`, for which the GI50 was 15.5 µM (inactive) in assay [1]; 5.06 µM (inactive) in assay [2]; 1.44 µM (inactive) in assay [3]; 1.97 µM (inactive) in [4]; 2 µM (inactive) in [5]; 1.97 µM (inactive) in assay [6]. Besides, the GI50 in assay [7] was 2.84 µM (inactive); in assay [8] it was 2.86 µM (inactive); in [9] it was 1.13 µM (inactive); in assay [10], 3.5 µM (inactive); in [11] it was 2.58 µM (inactive); in assay [12] it was 1.87 µM (inactive). Besides, the GI50 in assay [13] was 18.2 µM (inactive); in assay [14] it was 2.66 µM (inactive); in assay [15] it was 2.86 µM (inactive); in assay [16], 14.3 µM (inactive); in assay [17], 7.52 µM (inactive); in assay [18] it was 1.98 µM (inactive). Besides, the GI50 in assay [19] was 2.65 µM (inactive); in [20] it was 1.82 µM (inactive).
On to `C[N+](C)(C)CC(=O)N/N=C(/CC1OC(=O)c2ccccc21)c1ccccc1O` (centres undefined), for which the GI50 in assay [1] is 38.5 µM (inactive); in assay [2], 34.1 µM (inactive); in [3], 19 µM (inactive); in assay [4] it was 16.2 µM (inactive); in assay [5], 44.1 µM (inactive); in [6] it was 37.8 µM (inactive). Moreover, the GI50 in assay [7] is 95.9 µM (inactive); in assay [8], 30.6 µM (inactive); in assay [9] it was 46.5 µM (inactive); in assay [10], 62.4 µM (inactive); in assay [11], 60.5 µM (inactive); in assay [12], 28 µM (inactive). The GI50 in [13] is 42.4 µM (inactive); in assay [14] it was 29.2 µM (inactive); in assay [15], 72.8 µM (inactive); in [16] it was 35.2 µM (inactive); in assay [17], 46.8 µM (inactive); in assay [18] it was 14.3 µM (inactive). For the same molecule, the GI50 in assay [19] is 33.4 µM (inactive); in [20], 24.2 µM (inactive).
As for `CC(=O)OC1COC(Nc2nc(N)n(C)c(=O)c2N=O)C(OC(C)=O)C1OC(C)=O` (centres undefined), the GI50 in [1], in assay [2], in [3], in assay [4], in assay [5] and in assay [6] was > 10 µM (inactive) throughout. Further, the GI50 in assay [7], in assay [8], in assay [9], in assay [10], in assay [11] and in [12] was > 10 µM (inactive) in each case. Moreover, the GI50 in assay [13], in assay [14], in [15], in [16], in [17] and in assay [18] was > 10 µM (inactive) each time. In addition, the GI50 in assay [19] was > 10 µM (inactive).
Take `c1cc(C[S+]2CCCC2)ccc1C[S+]1CCCC1`: the GI50 in [1] is 29.2 µM (inactive); in assay [2], > 100 µM (inactive); in assay [3] it was > 100 µM (inactive); in assay [4], > 100 µM (inactive); in assay [5] it was > 100 µM (inactive); in [6], > 100 µM (inactive). Further, the GI50 in assay [7], in assay [8], in [9], in [10], in assay [11] and in [12] was > 100 µM (inactive) each time. The GI50 in [13], in assay [14], in assay [16], in [17], in assay [18] and in assay [19] was > 100 µM (inactive) throughout. In assay [20], the GI50 was > 100 µM (inactive).
For the molecule `C=CCN1C[C@H](C)N([C@H](c2ccc(C(=O)NC(CC)CC)cc2)c2cccc(OC)c2)C[C@H]1C`, the GI50 in [1] is 21.7 µM (inactive); in assay [2] it was 22.6 µM (inactive); in assay [3], 41.4 µM (inactive); in [4], 10.9 µM (inactive); in assay [5], 25.1 µM (inactive); in assay [6] it was 65.3 µM (inactive). Moreover, the GI50 in assay [7] was 28 µM (inactive); in [8] it was 35.6 µM (inactive); in assay [9] it was 13.4 µM (inactive); in [10] it was 52.4 µM (inactive); in assay [11], 31.1 µM (inactive); in assay [12], 33.7 µM (inactive). The GI50 is 39.8 µM (inactive) in assay [13]; 20.9 µM (inactive) in assay [15]; > 100 µM (inactive) in [16]; 75 µM (inactive) in assay [17]; 23.7 µM (inactive) in assay [18]; 29.9 µM (inactive) in assay [19]. Also, the GI50 in [20] is 21.2 µM (inactive).
Take `Cc1ccc(S(=O)(=O)O)cc1.c1cc2c(c(NC3=NCCN3)c1)CCCC2`: the GI50 in [1] was > 100 µM (inactive); in assay [2] it was > 100 µM (inactive); in assay [3] it was > 100 µM (inactive); in [4] it was > 100 µM (inactive); in [5], 99.5 µM (inactive); in assay [6] it was > 100 µM (inactive). Further, the GI50 in assay [7], in assay [8], in assay [9], in assay [10], in assay [11] and in assay [12] was > 100 µM (inactive) throughout. Also, the GI50 in assay [13], in assay [14], in assay [15], in assay [16], in assay [17] and in [18] was > 100 µM (inactive) in each case. For the same molecule, the GI50 in [19] is 56.2 µM (inactive).
As to `CCN(CCCl)c1cccc(NC(=O)c2ccc(C(=O)Nc3cccc(CN(C)C)c3)cc2)c1`, the GI50 in assay [1] was 0.136 µM (active); in assay [2], 0.302 µM (active); in assay [3], 0.027 µM (active); in [4], 0.0292 µM (active); in [5] it was 0.0597 µM (active); in assay [6], 0.0344 µM (active). The GI50 in assay [7] was 0.195 µM (active); in [8], 0.0243 µM (active); in [9] it was < 0.01 µM (active); in [11], 0.044 µM (active); in assay [12] it was < 0.01 µM (active); in [13] it was 0.125 µM (active). In addition, the GI50 is 0.165 µM (active) in assay [14]; 0.0301 µM (active) in assay [15]; 0.298 µM (active) in assay [16]; 0.0497 µM (active) in assay [17]; 0.037 µM (active) in assay [18]; 0.034 µM (active) in assay [19]. In addition, the GI50 in assay [20] is 0.475 µM (active).
On to `O=[N+]([O-])c1ncc(N(CCO)CCO)s1`, for which the GI50 in assay [1] is 65.5 µM (inactive); in [2] it was > 100 µM (inactive); in [3] it was 22.8 µM (inactive); in [4], 17.7 µM (inactive); in assay [5], 49.7 µM (inactive); in assay [7] it was 67.8 µM (inactive). Also, the GI50 in assay [8] was 34.8 µM (inactive); in [9], 16.4 µM (inactive); in [10], 65.6 µM (inactive); in assay [11], 41.3 µM (inactive); in assay [12], 16.7 µM (inactive); in [13] it was > 100 µM (inactive). Further, the GI50 in assay [14] is 16.4 µM (inactive); in assay [15] it was 21.6 µM (inactive); in assay [16], > 100 µM (inactive); in [17], > 100 µM (inactive); in assay [18] it was 43.8 µM (inactive); in assay [19], 33.3 µM (inactive). In addition, the GI50 in [20] was 43.1 µM (inactive).
